According to publication PMC10531311, “Anti-Inflammatory Activities of 8-Benzylaminoxanthines Showing High Adenosine A2A and Dual A1/A2A Receptor Affinity” (International Journal of Molecular Sciences, 2023):
Marks after values point to notes of the source that are not given here.

Assays:
formalin test in mice = assay: Formalin test; assay type: in vivo, albino Swiss mice; conditions: mice
Description: Injection of formalin into the dorsal surface of the hind paw of a mouse produces a biphasic nocifensive behavioral response; i.e., licking, biting, flinching or lifting of the injected paw. The acute (neurogenic) nociceptive phase lasts for the first 5 min and is followed by a period of little activity for the next 10 min. The first phase of the test is directly associated with nociceptor stimulation and the development of neurogenic inflammation. The second (late) phase occurs between 15 and 30 min after formalin injection. The second phase depends on peripheral inflammation and the central sensitization of pain. Since this phase reflects the activation of inflammatory processes, the compounds active in this phase of the experiment also have an anti-inflammatory effect. The tested compounds 19, 22 and 24, were investigated in three doses: 10, 20 and 40 mg/kg bw. ASA (acetylsalicylic acid) was used as a reference compound and administered in doses of 50, 100 and 200 mg/kg. […] The strongest effect in this assay was produced by 24. […] In addition, this anti-nociceptive and anti-inflammatory effect was approximately 13.8 times greater than that observed for the reference compound (ASA). […] ASA also attenuated statistically significant pain responses in the late phases of the formalin test. […] The in vivo experiments were carried out on male albino Swiss mice weighing 18–26 g and male Wistar rats weighing 150–180 g. The animals were housed in constant temperature facilities exposed to a 12:12 light-dark cycle and maintained on a standard pellet diet and tap water given ad libitum. The control and experimental groups consisted of 6–8 animals each. The investigated compounds were intraperitoneally (ip) administered in the form of a suspension in 0.5% methylcellulose. Control animals received the equivalent volume of solvent. All procedures were conducted according to the guidelines of ICLAS (International Council on Laboratory Animals Science) and were approved by the Local Ethics Committee of the Jagiellonian University in Kraków. The mice were pretreated with the test compound or the vehicle and were allowed to acclimate in Plexiglas observation chambers (20 × 30 × 15 cm) for 30 min before the test. Then, 20 μL of a 5% formalin solution was intraplantarly injected into the right hind paw using a 26-gauge needle. Immediately after formalin injection, the animals were individually placed into glass beakers and were observed during the next 30 min. Time (in seconds) spent on licking or biting the injected paw in selected intervals, 0–5, 15–20, 20–25 and 25–30 min, was measured in each experimental group and was an indicator of nociceptive behavior [41]. The ED50 values and their confidence limits were estimated by the method of Litchfield and Wilcoxon.

human adenosine A2BR = target: T1, human adenosine A2BR (Homo sapiens, UniProt P29275); assay: Radioligand binding at human adenosine A2B receptor vs. [3H]PSB-603; conditions: for inhibition at 1 µM: CHO cells, read-out: A2BR vs. [³H]PSB-603 % Inhibition ± SEM at 1 µM; for Ki: human recombinant receptor in CHO cells, read-out: A2BR vs. [³H]PSB-603 Ki ± SEM
T1 construct: expressed in transfected cells; host or cells: CHO cells
T1 sequence (P29275 1-332): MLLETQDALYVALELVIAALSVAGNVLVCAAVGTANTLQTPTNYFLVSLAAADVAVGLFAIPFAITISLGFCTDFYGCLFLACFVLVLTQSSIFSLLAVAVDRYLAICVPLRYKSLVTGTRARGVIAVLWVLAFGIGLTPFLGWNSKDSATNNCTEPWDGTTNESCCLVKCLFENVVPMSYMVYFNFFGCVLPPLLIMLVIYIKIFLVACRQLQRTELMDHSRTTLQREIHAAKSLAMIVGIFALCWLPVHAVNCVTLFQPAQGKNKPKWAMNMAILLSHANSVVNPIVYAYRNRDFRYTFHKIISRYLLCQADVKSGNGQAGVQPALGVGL
Description: (§1) Affinities for adenosine receptors were evaluated in radioligand binding assays as previously described. Human adenosine receptors were stably expressed in CHO cells. The following radioligands were used: [^3H]2-chloro-N^6-cyclopentyladenosine ([^3H]CCPA) for A1R; [^3H]3-(3-hydroxypropyl)-7-methyl-8-(m-methoxystyryl)-1-propargylxanthine ([^3H]MSX-2) for A2AR; [^3H]8-(4-(4-(4-chlorophenyl)piperazine-1-sulfonyl)phenyl)-1-propylxanthine ([^3H]PSB-603) for A2BR; [^3H]phenyl-8-ethyl-4-methyl-(8R)-4,5,7,8-tetrahydro-1H-imidazo [2,1-i]purine-5-one ([^3H]PSB-11) for A3R. Initially, compounds were tested at a concentration of 1 µM. […] At least three independent experiments were performed. Data were analyzed using GraphPad PRISM version 5.0 or higher (Graph Pad, San Diego, CA, USA). Ki were calculated using the Cheng–Prusoff equation.

human adenosine A1R = target: T2, human adenosine A1R (Homo sapiens, UniProt P30542); assay: Radioligand binding at human adenosine A1 receptor vs. [3H]CCPA; conditions: for inhibition at 1 µM: CHO cells, read-out: A1R vs. [³H]CCPA % Inhibition ± SEM at 1 µM; for Ki: human recombinant receptor in CHO cells, read-out: A1R vs. [³H]CCPA Ki ± SEM
T2 construct: expressed in transfected cells; host or cells: CHO cells
T2 sequence (P30542 1-326): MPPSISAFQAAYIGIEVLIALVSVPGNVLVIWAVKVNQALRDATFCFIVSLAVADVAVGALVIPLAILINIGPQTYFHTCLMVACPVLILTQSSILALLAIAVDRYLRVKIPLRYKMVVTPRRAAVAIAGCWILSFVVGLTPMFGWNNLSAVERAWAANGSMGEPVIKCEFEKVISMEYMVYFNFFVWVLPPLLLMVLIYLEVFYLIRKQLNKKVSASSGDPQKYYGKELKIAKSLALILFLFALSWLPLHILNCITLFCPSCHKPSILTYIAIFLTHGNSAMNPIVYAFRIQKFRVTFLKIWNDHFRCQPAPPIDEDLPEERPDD
Description: as §1

human adenosine A3R = target: T3, human adenosine A3R (Homo sapiens, UniProt P0DMS8); assay: Radioligand binding at human adenosine A3 receptor vs. [3H]PSB-11; conditions: for inhibition at 1 µM: CHO cells, read-out: A3R vs. [H³]PSB-11 % Inhibition ± SEM at 1 µM; for Ki: human recombinant receptor in CHO cells, read-out: A3R vs. [H³]PSB-11 Ki ± SEM
T3 construct: expressed in transfected cells; host or cells: CHO cells
T3 sequence (P0DMS8 1-318): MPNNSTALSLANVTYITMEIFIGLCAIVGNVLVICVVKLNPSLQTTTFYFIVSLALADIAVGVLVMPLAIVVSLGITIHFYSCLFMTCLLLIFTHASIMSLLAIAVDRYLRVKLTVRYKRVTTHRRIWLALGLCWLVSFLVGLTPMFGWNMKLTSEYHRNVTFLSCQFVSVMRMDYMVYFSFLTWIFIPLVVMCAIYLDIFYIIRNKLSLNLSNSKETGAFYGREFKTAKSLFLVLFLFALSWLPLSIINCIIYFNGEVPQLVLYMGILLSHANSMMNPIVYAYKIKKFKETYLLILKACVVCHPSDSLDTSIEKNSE
Description: as §1

human adenosine A2AR = target: T4, human adenosine A2AR (Homo sapiens, UniProt P29274); assay: Radioligand binding at human adenosine A2A receptor vs. [3H]MSX-2; conditions: for Ki: human recombinant receptor in CHO cells, read-out: A2AR vs. [³H]MSX-2 Ki ± SEM; for A2AR vs. [³H]MSX-2 % Inhibition ± SEM at 1 µM: CHO cells
T4 construct: expressed in transfected cells; host or cells: CHO cells
Description: as §1

T4 sequence (P29274 whole entry): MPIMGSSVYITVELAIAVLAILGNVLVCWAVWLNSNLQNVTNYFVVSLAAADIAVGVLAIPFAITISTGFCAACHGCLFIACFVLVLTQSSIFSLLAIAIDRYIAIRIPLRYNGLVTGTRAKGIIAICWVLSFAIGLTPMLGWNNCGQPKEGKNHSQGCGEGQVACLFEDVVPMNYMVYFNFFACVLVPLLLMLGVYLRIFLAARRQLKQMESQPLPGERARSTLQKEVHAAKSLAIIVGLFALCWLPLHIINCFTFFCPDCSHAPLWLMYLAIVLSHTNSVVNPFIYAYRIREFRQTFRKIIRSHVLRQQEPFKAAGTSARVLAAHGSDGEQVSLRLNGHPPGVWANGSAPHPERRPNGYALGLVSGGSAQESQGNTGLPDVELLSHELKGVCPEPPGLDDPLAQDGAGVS

Compound | inhibition at 1 µM (human adenosine A2BR) | Ki (human adenosine A2BR) | inhibition at 1 µM (human adenosine A1R) | Ki (human adenosine A1R) | inhibition at 1 µM (human adenosine A3R) | Ki (human adenosine A3R) | melting point | Ki (human adenosine A2AR) | A2AR vs. [³H]MSX-2 % Inhibition ± SEM at 1 µM (human adenosine A2AR) | also measured
CC(=O)Oc1ccccc1C(=O)O [ASA, acetylsalicylic acid, reference compound] | – | – | – | – | – | – | – | – | – | ED50 (formalin test in mice; Mus musculus, II (late) phase, method of Litchfield and Wilcoxon, read-out: calculated ED50 in the formalin test): 126 mg/kg; Early Phase Inhibition (%) (formalin test in mice; 50 mg/kg): 12.4%; Late Phase Inhibition (%) (formalin test in mice; 50 mg/kg): 10.0%; Licking of the Hind Paw Early Phase (0–5 min) Mean ± SEM (formalin test in mice; 50 mg/kg): 59.8 ± 6.3 s; Licking of the Hind Paw Late Phase (15–30 min) Mean ± SEM (formalin test in mice; 50 mg/kg): 108.7 ± 13.8 s; Early Phase Inhibition (%) (formalin test in mice; 100 mg/kg): 14.3%; Late Phase Inhibition (%) (formalin test in mice; 100 mg/kg): 50.0%; Licking of the Hind Paw Early Phase (0–5 min) Mean ± SEM (formalin test in mice; 100 mg/kg): 58.5 ± 4.5 s; Licking of the Hind Paw Late Phase (15–30 min) Mean ± SEM (formalin test in mice; 100 mg/kg): 60.3 ± 9.5 ^c sec; Late Phase Inhibition (%) (formalin test in mice; 200 mg/kg): 66.3%; Licking of the Hind Paw Early Phase (0–5 min) Mean ± SEM (formalin test in mice; 200 mg/kg): 62.0 ± 8.6 s; Licking of the Hind Paw Late Phase (15–30 min) Mean ± SEM (formalin test in mice; 200 mg/kg): 40.6 ± 14.0 ^c sec
Cn1c(NCc2ccccc2Cl)nc2c1c(=O)n(Cc1ccc(Cl)c(Cl)c1)c(=O)n2C [compound 11, 8-((2-Chlorobenzyl)amino)-1-(3,4-dichlorobenzyl)-3,7-dimethyl-3,7-dihydro-1H-purine-2,6-dione] | 4% | > 1000 nM | 10% | > 1000 nM | 40% | > 1000 nM | 198 to 203 °C | > 1000 nM | 23 ± 7% | –
C#CCn1c(=O)c2c(nc(NCc3ccccc3Cl)n2C)n(C2CC2)c1=O [compound 27, 8-((2-Chlorobenzyl)amino)-3-cyclopropyl-7-methyl-1-(prop-2-yn-1-yl)-3,7-dihydro-1H-purine-2,6-dione] | 9% | > 1000 nM | – | 247 ± 43 nM | 16% | > 1000 nM | 172 to 173 °C | 311 ± 167 nM | – | –
C#CCn1c(=O)c2c(nc(NCc3ccccc3F)n2C)n(C2CC2)c1=O [compound 28, 3-Cyclopropyl-8-((2-fluorobenzyl)amino)-7-methyl-1-(prop-2-yn-1-yl)-3,7-dihydro-1H-purine-2,6-dione] | 14% | > 1000 nM | – | 166 ± 65 nM | -2% | > 1000 nM | 190 to 192 °C | 386 ± 61 nM | – | –
C#CCn1c(=O)c2c(nc(NCc3c(F)cccc3Cl)n2C)n(C2CC2)c1=O [compound 29, 8-((2-Chloro-6-fluorobenzyl)amino)-3-cyclopropyl-7-methyl-1-(prop-2-yn-1-yl)-3,7-dihydro-1H-purine-2,6-dione] | 16% | > 1000 nM | – | 78 ± 9 nM | 16% | > 1000 nM | 186 to 187 °C | 204 ± 38 nM | – | –

The next lines start with results.

inhibition at 1 µM (human adenosine A2BR) | Ki (human adenosine A2BR) | inhibition at 1 µM (human adenosine A1R) | Ki (human adenosine A1R) | inhibition at 1 µM (human adenosine A3R) | Ki (human adenosine A3R) | melting point | Ki (human adenosine A2AR) | A2AR vs. [³H]MSX-2 % Inhibition ± SEM at 1 µM (human adenosine A2AR) | Compound | also measured
32% | > 1000 nM | 21% | > 1000 nM | 11% | > 1000 nM | 181 to 183 °C | 318 ± 141 nM | – | CCCCn1c(=O)c2c(nc(NCc3ccccc3Cl)n2C)n(C)c1=O [compound 6, 1-Butyl-8-((2-chlorobenzyl)amino)-3,7-dimethyl-3,7-dihydro-1H-purine-2,6-dione] | –
41% | > 1000 nM | 35% | > 1000 nM | 13% | > 1000 nM | 177 to 180 °C | > 1000 nM | 38 ± 4% | CCCCCn1c(=O)c2c(nc(NCc3ccccc3Cl)n2C)n(C)c1=O [compound 7, 8-((2-Chlorobenzyl)amino)-3,7-dimethyl-1-pentyl-3,7-dihydro-1H-purine-2,6-dione] | –
13% | > 1000 nM | 17% | > 1000 nM | 31% | > 1000 nM | 191 to 194 °C | > 1000 nM | 9 ± 8% | CCCCCCn1c(=O)c2c(nc(NCc3ccccc3Cl)n2C)n(C)c1=O [compound 8, 8-((2-Chlorobenzyl)amino)-1-hexyl-3,7-dimethyl-3,7-dihydro-1H-purine-2,6-dione] | –
9% | > 1000 nM | 23% | > 1000 nM | 24% | > 1000 nM | 205 to 208 °C | 323 ± 150 nM | – | Cn1c(NCc2ccccc2Cl)nc2c1c(=O)n(Cc1ccccc1)c(=O)n2C [compound 9] | –
14% | > 1000 nM | 12% | > 1000 nM | 31% | > 1000 nM | 228 to 230 °C | > 1000 nM | – | Cn1c(NCc2ccccc2Cl)nc2c1c(=O)n(Cc1ccc(Cl)cc1)c(=O)n2C [compound 10, 1-(4-Chlorobenzyl)-8-((2-chlorobenzyl)amino)-3,7-dimethyl-3,7-dihydro-1H-purine-2,6-dione] | –
